Data published in patent publication US20240124422A1, “MUTANT PI3K-ALPHA INHIBITORS AND THEIR USE AS PHARMACEUTICALS” (Prelude Therapeutics Incorporated, priority 2022, published 2024).

What follows are molecules tested on phosphorylation of AKT on Ser473 as a readout of the PI3K pathway in T-47D (heterozygous PIK3CA H1047R) cells (assay: PI3K pathway activation assay, pAKT Ser473 HTRF, T-47D cells). Conditions: Homo sapiens, T47D, 2 h, two hours of treatment.
Type: cell-based
Experimental: The inhibitory activity of compounds was evaluated by measuring phosphorylation of AKT on Ser473 as a readout of the PI3K pathway using HTRF (CisBio catalog number: 64AKSPE). These studies were conducted in the T-47D (heterozygous PIK3CA H1047R) and SKBR3 (PIK3CA WT) cell lines. Cells were maintained in a 37° C. incubator at 5% CO2 in the following media: T-47D: RPMI 1640, ATCC© Modification (Gibco, A10491-01) supplemented with 10% v/v FBS (Gibco, 26140-079), 1% penicillin streptomycin (Gibco, 15140-122), and 7.4 ug/mL insulin (MilliporeSigma, I9278); SKBR3: McCoy's 5a (Modified) Medium (Gibco, 16600-082) supplemented with 10% v/v FBS (Gibco, 26140-079). Cells were seeded in 384-well plates at a density of 4,000 cells/well. Compounds dissolved in DMSO were added using a digital dispense (D300E, Tecan) 10-point serial dilution. After two hours of treatment, cells were lysed for thirty minutes and then incubated with detection reagents per HTRF kit material and manufacturer's instructions. Fluorescence signal was measured with a multimode plate reader (Envision 2105, Perkin Elmer). Fluorescent signal was normalized to background and DMSO controls to obtain percent inhibition/activity for each compound.

Q: With `Cc1cc(C(C)Nc2ccccc2C(=O)O)c2nc(N3CCC(O)CC3)n(C)c(=O)c2c1` (stereo not drawn) [Example 57, 2-((1-(2-(4-hydroxypiperidin-1-yl)-3,6-dimethyl-4-oxo-3,4-dihydroquinazolin-8-yl)ethyl)amino)benzoic acid] as the molecule, how does the IC50 read?
A: 500 to 10000 nM

Q: With `Cc1cc(C(C)Nc2cc(Cl)nnc2C(=O)O)c2nc(N3CC4CC4C3)n(C)c(=O)c2c1` (stereo not drawn) [Example 126, 4-((1-(2-(3-Azabicyclo[3.1.0]hexan-3-yl)-3,6-dimethyl-4-oxo-3,4-dihydroquinazolin-8-yl)ethyl)amino)-6-chloropyridazine-3-carboxylic acid] as the molecule, how does the IC50 read?
A: 500 to 10000 nM

Q: With `Cc1cc(C(C)Nc2ccccc2C(=O)O)c2nc(N3CC4CC4C3)n(C(F)F)c(=O)c2c1` (stereo not drawn) [Example 102, 2-((1-(2-(3-Azabicyclo[3.1.0]hexan-3-yl)-3-(difluoromethyl)-6-methyl-4-oxo-3,4-dihydroquinazolin-8-yl)ethyl)amino)benzoic acid] as the molecule, how does the IC50 read?
A: 500 to 10000 nM

Q: With `Cc1cc(C(C)Nc2ccccc2C(=O)O)c2nc(N3CC4(CCC4(F)F)C3)n(C)c(=O)c2c1` (stereo not drawn) [Example 106, 2-[1-[2-(7,7-difluoro-2-azaspiro[3.3]heptan-2-yl)-3,6-dimethyl-4-oxoquinazolin-8-yl]ethylamino]benzoic acid] as the molecule, how does the IC50 read?
A: < 500 nM

Q: `C=CC(=O)N1CCCC1c1nc2c(C(C)Nc3ccccc3C(=O)O)cc(C)cc2c(=O)n1C` (stereo not drawn) [Example 71, 2-[1-[3,6-Dimethyl-4-oxo-2-(1-prop-2-enoylpyrrolidin-2-yl)quinazolin-8-yl]ethylamino]benzoic acid] was tested. Which IC50 did it give?
A: 500 to 10000 nM

Q: With `COc1cccc(NC(C)c2cc(C)cc3c(=O)n(C)c(N4Cc5ccccc5C4)nc23)c1C(=O)O` (stereo not drawn) [Example 29, 2-((1-(2-(isoindolin-2-yl)-3,6-dimethyl-4-oxo-3,4-dihydroquinazolin-8-yl)ethyl)amino)-6-methoxybenzoic acid] as the molecule, how does the IC50 read?
A: 500 to 10000 nM

Q: With `Cc1cc(C(C)Nc2ccccc2C(=O)O)c2nc(N3CCCC3(C)C)n(C)c(=O)c2c1` (stereo not drawn) [Example 115, 2-((1-(2-(2,2-dimethylpyrrolidin-1-yl)-3,6-dimethyl-4-oxo-3,4-dihydroquinazolin-8-yl)ethyl)amino)benzoic acid] as the molecule, how does the IC50 read?
A: < 500 nM

Q: With `Cc1cc(C(C)Nc2ccc(Cl)cc2C(=O)O)c2nc(N3Cc4ccccc4C3)n(C)c(=O)c2c1` (stereo not drawn) [Example 33, 5-chloro-2-((1-(2-(isoindolin-2-yl)-3,6-dimethyl-4-oxo-3,4-dihydroquinazolin-8-yl)ethyl)amino)benzoic acid] as the molecule, how does the IC50 read?
A: 500 to 10000 nM

Q: `Cc1cc(C(C)Nc2ccccc2C(O)C(F)(F)F)c2nc(N3Cc4ccccc4C3)n(C)c(=O)c2c1` (stereo not drawn) [Example 12, 2-(isoindolin-2-yl)-3,6-dimethyl-8-(1-((2-(2,2,2-trifluoro-1-hydroxyethyl)phenyl)amino)ethyl)quinazolin-4(3H)-one] was tested. Which IC50 did it give?
A: 500 to 10000 nM

Q: Which IC50 does the source give for `Cc1cc(C(C)Nc2ccccc2C(=O)O)c2nc(N3CC4CC3CN4C(=O)OC(C)(C)C)n(C)c(=O)c2c1` (stereo not drawn) [Example 65, 2-((1-(2-(5-(tert-Butoxycarbonyl)-2,5-diazabicyclo[2.2.1]heptan-2-yl)-3,6-dimethyl-4-oxo-3,4-dihydroquinazolin-8-yl)ethyl)amino)benzoic acid] here?
A: 500 to 10000 nM

Q: How did the IC50 turn out when `CC(Nc1ccccc1C(=O)O)c1cc(C(F)F)cc2c(=O)n(C)c(N3CC4CC4C3)nc12` (stereo not drawn) [Example 79, 2-((1-(2-(3-Azabicyclo[3.1.0]hexan-3-yl)-6-(difluoromethyl)-3-methyl-4-oxo-3,4-dihydroquinazolin-8-yl)ethyl)amino)benzoic acid] was run?
A: 500 to 10000 nM

Q: `CSc1ncc(NC(C)c2cc(C)cc3c(=O)n(C)c(N4CC5CC5C4)nc23)c(C(=O)O)n1` (stereo not drawn) [Example 118, 5-((1-(2-(3-Azabicyclo[3.1.0]hexan-3-yl)-3,6-dimethyl-4-oxo-3,4-dihydroquinazolin-8-yl)ethyl)amino)-2-(methylthio)pyrimidine-4-carboxylic acid] was tested. Which IC50 did it give?
A: 500 to 10000 nM

Q: For `Cc1cc(C(C)Nc2ccccc2C(=O)O)c2nc(N3CCC(C#N)CC3)n(C)c(=O)c2c1` (stereo not drawn) [Example 44, 2-((1-(2-(4-cyanopiperidin-1-yl)-3,6-dimethyl-4-oxo-3,4-dihydroquinazolin-8-yl)ethyl)amino)benzoic acid], which IC50 is on record?
A: 500 to 10000 nM

Q: How did the IC50 turn out when `CSc1ccc(NC(C)c2cc(C)cc3c(=O)n(C)c(N4CC5CC5C4)nc23)c(C(=O)O)n1` (stereo not drawn) [Example 124, 3-[1-[2-(3-Azabicyclo[3.1.0]hexan-3-yl)-3,6-dimethyl-4-oxoquinazolin-8-yl]ethylamino]-6-methylsulfanylpyridine-2-carboxylic acid] was run?
A: < 500 nM

Q: For `Cc1cc(C(C)Nc2ccccc2C(=O)O)c2nc(N3CC4CC4C3)n(C)c(=O)c2c1F` (single isomer, unassigned) [Example 95, 2-((1-(2-(3-Azabicyclo[3.1.0]hexan-3-yl)-5-fluoro-3,6-dimethyl-4-oxo-3,4-dihydroquinazolin-8-yl)ethyl)amino)benzoic acid], which IC50 is on record?
A: < 500 nM

Q: With `Cc1cc(C(Nc2ccccc2C(=O)O)C(F)(F)F)c2nc(N3CC4CC4C3)n(C)c(=O)c2c1` (stereo not drawn) [Example 47, 2-[[1-[2-(3-azabicyclo[3.1.0]hexan-3-yl)-3,6-dimethyl-4-oxoquinazolin-8-yl]-2,2,2-trifluoroethyl]amino]benzoic acid] as the molecule, how does the IC50 read?
A: 500 to 10000 nM

Q: With `Cc1cc(C(C)Nc2ccccc2C(=O)O)c2nc(N3Cc4ccccc4C3)n(-c3cccnc3)c(=O)c2c1` (stereo not drawn) [Example 18, 2-((1-(2-(isoindolin-2-yl)-6-methyl-4-oxo-3-(pyridin-3-yl)-3,4-dihydroquinazolin-8-yl)ethyl)amino)benzoic acid] as the molecule, how does the IC50 read?
A: 500 to 10000 nM

Q: How did the IC50 turn out when `Cc1cc(C(C)Nc2ccccc2C(=O)O)c2nc(N)n(C)c(=O)c2c1` (stereo not drawn) [Example 26, 2-((1-(2-amino-3,6-dimethyl-4-oxo-3,4-dihydroquinazolin-8-yl)ethyl)amino) benzoic acid] was run?
A: 500 to 10000 nM

Q: For `CC(Nc1ccccc1C(=O)O)c1cc(C(F)(F)F)cc2c(=O)n(C)c(N3CC4CC4C3)nc12` (stereo not drawn) [Example 16, 2-((1-(2-(3-azabicyclo[3.1.0]hexan-3-yl)-3-methyl-4-oxo-6-(trifluoromethyl)-3,4-dihydroquinazolin-8-yl)ethyl)amino)benzoic acid], which IC50 is on record?
A: 500 to 10000 nM

Q: With `CCc1cc(C(C)Nc2ccccc2C(=O)O)c2nc(N3CC4CC4C3)n(C)c(=O)c2c1` (stereo not drawn) [Example 78, 2-((1-(2-(3-Azabicyclo[3.1.0]hexan-3-yl)-6-ethyl-3-methyl-4-oxo-3,4-dihydroquinazolin-8-yl)ethyl)amino)benzoic acid] as the molecule, how does the IC50 read?
A: 500 to 10000 nM

Same assay, conditions: two hours of treatment, read-out: T47D pAKT IC50

Q: With `CNC(=O)C1[C@H]2CN(c3nc4c(C(C)Nc5ccccc5C(=O)O)cc(C)cc4c(=O)n3C)C[C@@H]12` (stereo partly drawn) [Example 89, 2-((1-(3,6-Dimethyl-2-((1R,5S,6R)-6-(methylcarbamoyl)-3-azabicyclo[3.1.0]hexan-3-yl)-4-oxo-3,4-dihydroquinazolin-8-yl)ethyl)amino)benzoic acid] as the molecule, how does the IC50 read?
A: 500 to 10000 nM

Q: `Cc1cc(C(C)Nc2ccccc2C(=O)O)c2nc(N3C[C@@H]4C(C(=O)N5CCC[C@@H]5C)[C@@H]4C3)n(C)c(=O)c2c1` (stereo partly drawn) [Example 85, 2-((1-(3,6-Dimethyl-2-((1R,5S,6R)-6-((S)-2-methylpyrrolidine-1-carbonyl)-3-azabicyclo[3.1.0]hexan-3-yl)-4-oxo-3,4-dihydroquinazolin-8-yl)ethyl)amino)benzoic acid] was tested. Which IC50 did it give?
A: < 500 nM

Q: `Cc1cc(C(C)Nc2ccccc2C(=O)O)c2nc(N3C[C@@H]4[C@H](C3)[C@H]4C(=O)N3CCOC[C@@H]3C)n(C)c(=O)c2c1` (stereo partly drawn) [Example 86, 2-((1-(3,6-Dimethyl-2-((1R,5S,6R)-6-((S)-3-methylmorpholine-4-carbonyl)-3-azabicyclo[3.1.0]hexan-3-yl)-4-oxo-3,4-dihydroquinazolin-8-yl)ethyl)amino)benzoic acid] was tested. Which IC50 did it give?
A: < 500 nM

Q: `Cc1cc(C(C)Nc2ccccc2C(=O)O)c2nc(N3C[C@@H]4C(C(=O)N(C)c5cccnc5)[C@@H]4C3)n(C)c(=O)c2c1` (stereo partly drawn) [Example 88, 2-((1-(3,6-Dimethyl-2-((1R,5S,6R)-6-(methyl(pyridin-3-yl)carbamoyl)-3-azabicyclo[3.1.0]hexan-3-yl)-4-oxo-3,4-dihydroquinazolin-8-yl)ethyl)amino)benzoic acid] was tested. Which IC50 did it give?
A: 500 to 10000 nM

Q: Which IC50 does the source give for `COCCN(C)C(=O)[C@H]1[C@@H]2CN(c3nc4c(C(C)Nc5ccccc5C(=O)O)cc(C)cc4c(=O)n3C)C[C@@H]21` (stereo partly drawn) [Example 87, 2-((1-(2-((1R,5S,6R)-6-((2-Methoxyethyl)(methyl)carbamoyl)-3-azabicyclo[3.1.0]hexan-3-yl)-3,6-dimethyl-4-oxo-3,4-dihydroquinazolin-8-yl)ethyl)amino)benzoic acid] here?
A: 500 to 10000 nM

Q: For `COc1ccc(OC(=O)NC2[C@H]3CN(c4nc5c(C(C)Nc6ccccc6C(=O)O)cc(C)cc5c(=O)n4C)C[C@@H]23)cc1` (stereo partly drawn) [Example 62, 2-((1-(2-((1R,5S,6s)-6-(((4-methoxyphenoxy)carbonyl)amino)-3-azabicyclo[3.1.0]hexan-3-yl)-3,6-dimethyl-4-oxo-3,4-dihydroquinazolin-8-yl)ethyl)amino)benzoic acid], which IC50 is on record?
A: 500 to 10000 nM

Q: `Cc1cc(C(C)Nc2ccccc2C(=O)O)c2nc(N3C[C@@H]4[C@H](C3)[C@H]4C(=O)N(C)CC(F)F)n(C)c(=O)c2c1` (stereo partly drawn) [Example 84, 2-((1-(2-((1R,5S,6R)-6-((2,2-Difluoroethyl)(methyl)carbamoyl)-3-azabicyclo[3.1.0]hexan-3-yl)-3,6-dimethyl-4-oxo-3,4-dihydroquinazolin-8-yl)ethyl)amino)benzoic acid] was tested. Which IC50 did it give?
A: < 500 nM
